Data taken from article PMC2171038 (Traffic (Copenhagen, Denmark), 2007).
pIC50: −log10 of the molar value.

Biological target: T1, protoporphyrinogen oxidase (Saccharomyces cerevisiae, UniProt P40012)
T1 sequence (P40012 1-539): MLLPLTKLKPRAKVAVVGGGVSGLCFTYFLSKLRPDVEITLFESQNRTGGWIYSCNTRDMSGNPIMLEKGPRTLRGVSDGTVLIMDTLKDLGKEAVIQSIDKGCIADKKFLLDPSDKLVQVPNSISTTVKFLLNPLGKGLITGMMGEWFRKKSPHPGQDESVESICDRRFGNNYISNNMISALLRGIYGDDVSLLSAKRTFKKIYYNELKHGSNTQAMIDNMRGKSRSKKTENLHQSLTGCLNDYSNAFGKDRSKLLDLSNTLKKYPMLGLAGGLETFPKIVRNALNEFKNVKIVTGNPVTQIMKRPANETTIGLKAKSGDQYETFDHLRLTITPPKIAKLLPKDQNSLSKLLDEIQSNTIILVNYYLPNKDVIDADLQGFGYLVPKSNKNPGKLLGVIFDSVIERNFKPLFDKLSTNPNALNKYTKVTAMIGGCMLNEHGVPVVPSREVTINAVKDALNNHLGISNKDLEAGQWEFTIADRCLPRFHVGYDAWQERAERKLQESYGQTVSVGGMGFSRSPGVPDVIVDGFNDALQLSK
Assay: fluorimetric protoporphyrinogen oxidase activity assay
Assay type: biochemical

Question: How did the pIC50 turn out when `CC(=O)N(O)CCCCCNC(=O)CCC(=O)N(O)CCCCCNC(=O)CCC(=O)N(O)CCCCCNC(=O)c1cc(Oc2ccc(C(F)(F)F)cc2Cl)ccc1[N+](=O)[O-]` [compound 1, DFOB-AF] was run?
Answer: ~7.00
